Key:
Assay type in all cases: cell-based, human
iPS cells: Tic (Np 39) [1] = experiment: Influences of feeder cells on iPS cells: Rac-1 inhibitor added in culture on MEF feeder cells; conditions: Rac-1 inhibitor 50, 100, or 150 μM added at day 3, outer edge part without inhibitor
Experimental: (§1) On feeder cells, iPS cells were seeded, and the culture medium was exchanged with a maintenance medium every 24 hours until day 7. After the culture, the expression of Oct3/4 of the cultured cells was confirmed by immunocytostaining, and DAPI staining was performed. The used cells and media, as well as the culture conditions are as follows.
iPS cells: Repro Stem (trade name, manufactured by ReproCELL J, Inc.), 5 ng/mL FGF-2
Micrographs obtained are illustrated in FIG. 17.
Next, cells were cultured and observed in the same manners as those described above except that a Rac-1 inhibitor (trade name: NSC23766, Calbiochem brand), which is a migration inhibitor, was added at 50, 100, or 150 μM at three days after the start of the culture (day 3). The obtained micrographs are illustrated in FIG. 17.
Dilution of Rac-1 inhibitor: the Rac-1 inhibitor was diluted by using a medium (Repro Stem) (final concentration: 50 or 100 μM).
Further, bFGF (trade name, manufactured by ReproCELL, Inc., final concentration 5 ng/ml) was added thereto, and the Rac-1 inhibitor thus diluted was added to iPS cells.

iPS cells = experiment: Rac-1 inhibitor added in culture on SNL feeder cells; conditions: Rac-1 inhibitor 50 or 100 μM added at day 3, same as without inhibitor
Experimental: Culture was performed by using SNL feeder cells as the feeder cells and adding the Rac-1 inhibitor (50 or 100 μM) at three days after the culture start (day 3).

iPS cells: Tic (Np 39) [2] = experiment: Influences of feeder-free culture on iPS cells: Rac-1 inhibitor added; conditions: Rac-1 inhibitor 100 or 150 μM at day 3 (FIG. 19: 150 μM), Synthemax Surface
Experimental: as §1, with “Synthemax Surface (trade name, manufactured by Corning Inc.) was used as a culture surface, and” for “On feeder cells,”, “seeded thereover. The” for “seeded, and the”
mTeSR (Trade Mark) 1 medium (trade name, manufactured by STEMCELL, Technologies)
Next, cells were cultured and observed in the same manner as those described above except that the Rac-1 inhibitor was added at 100 or 150 μM at three days after the start of the culture (day 3). Micrographs obtained are illustrated in FIG. 19. FIG. 19 illustrates micrographs obtained in the case where the Rac-1 inhibitor was 150 μM.

## CCN(CC)CCCC(C)Nc1nc(C)cc(Nc2ccc3nc(C)cc(N)c3c2)n1 (racemic) [Rac-1 inhibitor]
iPS cells: Tic (Np 39) [1]
  Part of the colony where deviated cells emerge: emerge in the center part of the colony
iPS cells
  Part of the colony where deviated cells grew: Deviated cells grew in the center part of a colony
iPS cells: Tic (Np 39) [2]
  Part of the colony where deviated cells emerge: allowed deviated cells to emerge in the center part of a colony

From US9822344B2, “Method for culturing pluripotent stem cells” (OSAKA UNIVERSITY, priority 2012, dated 2017)
